Experimental data: patent US12534552B2, “Antibacterial polymer” (LG Chem, Ltd., priority 2020, dated 2026)

Columns and labels:
[1] = system: E. Coli; experiment: Antibacterial Test 2: bacterial reduction rate, ASTM E 2149 test method; format: cell-based, Escherichia coli; conditions: 0.2 g sample, 10 mL PBS with E. Coli, 37° C., colony count; for 1 hour-bacterial reduction rate: 1 hour-contact; for 24 hour-bacterial reduction rate: 24 hour-contact
Procedure: (§1) Antibacterial tests were performed on the antibacterial polymers prepared in Examples and Comparative Examples. Specifically, based on the ASTM E 2149 antibacterial test method, the bacterial reduction rate (%) was measured by the following method. In addition, the bacterial reduction rates (%) of Icaridin and Menthol acrylate as single molecules was also measured by the same method and shown as Comparative Examples 2 and 3.
The sample (0.2 g) was placed in a 50 mL conical tube, to which 1× PBS (10 mL) inoculated with E. Coli (1.5×10^5 CFU/mL) was added, and cultured for 1 hour and 24 hours in a shaking incubator at 37° C., so as to allow the bacteria and the material to come into sufficient contact with each other. In order to check the colony of E. coli in the cultured sample, the sequentially diluted solution was spread on a TSA Agar plate, and then cultured for 16 hours so as to form colonies in an incubator at 30° C. The degree of bacterial culture was grasped from the number of colonies formed, and the antibacterial performance was compared.
In the above equation, Cs is the number of microorganisms (CFU/ml) in the experimental group, which can be confirmed as the number of colonies formed on the TSA Agar plate, and C0 is the number of microorganisms in the control group, which means the number of E. Coli in PBS to which the sample was not added.

[2] = system: Proteus Mirabilis (ATCC 29906); experiment: Antibacterial Test 1: bacterial growth inhibition rate by absorbance at 600 nm; format: cell-based; conditions: 0.1 g sample in 25 ml nutrient broth, 3000 CFU/ml, 37° C., 16 hours
Procedure: as §1, with “in” for “based on”, “the” for “the ASTM E 2149”, “test,” for “test method,”, “growth inhibition” for “reduction”, “growth inhibition rate” for “reduction rates”
0.1 g of the antibacterial polymer prepared above was added to 25 ml of nutrient broth culture medium inoculated with the test bacterium Proteus Mirabilis (ATCC 29906) at 3000 CFU/ml, and then incubated in a shaking incubator (VS-37SIF, produced by Visiontech) at 37° C. for 16 hours. The absorbance at 600 nm wavelength of the cultured solution was measured using a UV-Vis Spectrophotometer (Optizen POP, produced by K Lab). In addition, in a pure culture medium containing no antibacterial polymer, a solution prepared by culturing Proteus Mirabilis (ATCC 29906) at 37° C. for 16 hours was prepared as a control group, and the absorbance at a 600 nm wavelength was measured by the same manner as above. Using the measurement result, the bacterial growth inhibition rate (%) of Proteus Mirabilis (ATCC 29906) was calculated according to Equation 1 below, and the results are shown in Table 1 below. […]

[3] = Comparison of thermal decomposition behavior by TGA of PMMA blends; format: physicochemical; conditions: TGA step 4, 50° C. to 600° C., 10° C./min, nitrogen; 40 parts by weight in 100 parts PMMA
Procedure: Poly(Methyl methacrylate) (TCI Chemical, CAS RN: 9011-14-7) was put into a Mixed Torque Rheometer (HAPRO), and then the temperature was raised to 160° C. and the mixture was mixed for 5 minutes. PIA-2 and icaridin were added in an amount of 40 parts by weight based on 100 parts by weight of poly(methyl methacrylate), respectively, mixed at a temperature of 160° C. for 30 minutes, and then cooled to room temperature to obtain a sample.
In order to confirm the thermal decomposition behavior of the prepared sample, experiments were performed as shown in Table 2 below using TGA (Thermogravimetric Analyzer, TA Instrument, DISCOVERY TGA 550 W/MFC & AUTO).

SMILES	1 hour-bacterial reduction rate [1]	24 hour-bacterial reduction rate [1]	Bacterial growth inhibition rate [2]	Thermal decomposition behavior / heat resistance [3]
C=CC(=O)OC1CC(C)CCC1C(C)C (stereo not shown) [compound 3, Menthol acrylate]	0%	0%	0.2%	
CCC(C)OC(=O)N1CCCCC1CCO (stereo not shown) [compound 2, Icaridin]	3.17%	13.89%	11.24%	proceeds decomposition from a lower temperature than that of PIA-2
